Results on 1 compound are retold here after article PMC4557640 (2015).

For assay [1], the system named is Aod(xtal) (RNA, riboswitch) GGGUCGUGACUGGCGAACAGGUGGGAAACCACCGGGGAGCGACCCUUGCCGCCCGCCUGGGCAA
As to the kind of experiment: ITC. As to conditions: 135 mM KCl, 15 mM NaCl, 10 mM MgCl2; 10 mM K-HEPES pH 8.0.

The test system of assay [2] is Aod(xtal-wtL2) (RNA, riboswitch) GGGUCGUGACUGGCGAACAGGUGGGCCACCACCGGGGAGCGACCCUUGCCGCCCGCCUGGGCAA
As to the kind of experiment: ITC. As to conditions: 135 mM KCl, 15 mM NaCl, 10 mM MgCl2; 10 mM K-HEPES pH 8.0.

For orientation: KD means the equilibrium constant for the complex coming apart. High values mean a looser complex, low ones a tighter complex. In the case of `NC(=O)c1ncn([C@@H]2O[C@H](COP(=O)(O)O)[C@@H](O)[C@H]2O)c1N`, the KD in assay [1] turned out to be 1.08 ± 0.06 µM; in assay [2] it was 0.47 ± 0.03 µM.
